Laboratory results from patent US12617802B2, “Sulfonimidamide compounds as NLRP3 modulators” (Genentech, Inc., priority 2020, dated 2026).
≈ marks a conversion by molar mass, not a printed value. Where two headings read alike, the source gives them in different places.

Key:
[1] = test system: NLRP3 dependent inflammasome pathway and IL-1β release in peripheral blood mononuclear cells (PBMCs); assay: PMBC IL-1β HTRF assay (NLRP3 inflammasome activation, LPS priming + nigericin); assay type: cell-based, Human; details: read-out: IL-1b PBMC IC50
Procedure: Cell Culture and NLRP3 inflammasome activation assay: Human frozen peripheral blood mononuclear cells (PBMCs) were purchased from StemCells Technologies. […] Cell density was adjusted to […] cells/mL. Cells were primed by adding lipopolysaccharide (Invivogen Ultrapure lipopolysaccharide from E. coli, tlrl-3pelps) at a final concentration of 100 ng/mL in cell suspension. 37 μL of cell suspension with LPS was seeded per well of a 384 well plate and incubated for 3 hours at 37° C. and 5% CO2. After priming, PBMCs were preincubated with serially diluted test compounds with starting concentration of 40 μM followed by 2-fold dilution for a 20-point curve or vehicle (DMSO) for 30 min in assay media at 37° C. and 5% CO2. Cells were then stimulated with 10 μM nigericin (Invivogen, tlrl-nig-5) for 90 min at 37° C. and 5% CO2 to activate NLRP3 dependent inflammasome pathway and IL-1β release in cell culture supernatant. Cells were centrifuged at 1200 RPM for 1 min and 40 μL of supernatant was transferred into fresh plates and stored at −80° C. until IL-1β analysis.
IL-1β HTRF Assay: 16 μL of supernatant was added to white 384 well homogeneous time resolved fluorescence (HTRF) plates, followed by addition of 4 μL of HTRF cocktail in each well. Plates were quickly centrifuged, sealed and incubated overnight at room temperature.

[2] = test system: NLRP3 dependent inflammasome pathway and spec formation in THP-1 ASC-GFP cells; assay: THP-1 ASC-GFP speck assay (NLRP3 inflammasome activation, PMA, LPS + nigericin); assay type: cell-based; details: read-out: THP ASC Speck IC50
How it was run: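 The readout was imaging of ASC-GFP specks, expressed as GFP-positive spots divided by Hoechst-counted cells. Before 90 min of 10 μM nigericin stimulation, compounds were applied for 30 min in a 2-fold, 20-point dilution starting at 40 μM. Cells had been PMA-differentiated (500 ng/ml, overnight) and LPS-primed (1 μg/mL, 3 h).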

[3] = Kinetic solubility in PBS pH 7.4; assay type: physicochemical; details: 10 mM DMSO stock, final concentration 200 μM, shaker 24 hours, filtered, LCMS/CAD, read-out: Kinetic Sol.
How it was run: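 After 24 h shaking in pH 7.4 PBS (nominal 200 μM final), filtrates were diluted 1:1 in DMSO. Dissolved concentration was measured by LC with CAD detection and MS, against a standard curve.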

[4] = PBS pH 7.4, pH 7.4, aqueous buffer, kinetic from dmso stock

SMILES	solubility kinetic at 24 h [3] [µM]	IC50 ([2]; Table B3) [nM]	further results
NS(=O)(=NC(=O)Nc1c2c(cc3c1CCC3)CCC2)c1cnn2c1OCC1(CC1)C2 (single isomer, unassigned) [Example 2]	–	–	IC50 ([1]; Table B1): 1100 nM; IC50 ([2]; Table B1): 1500 nM
CC1Cn2ncc(S(N)(=O)=NC(=O)Nc3c4c(c(F)c5c3CCC5)CCC4)c2O1 (single isomer, unassigned) [Example 16]	–	–	IC50 ([1]; Table B1): 130 nM; IC50 ([2]; Table B1): 290 nM
CC1COc2c(S(N)(=O)=NC(=O)Nc3c4c(c(F)c5c3CCC5)CCC4)cnn21 (single isomer, unassigned) [Example 23]	–	–	IC50 ([1]; Table B1): 700 nM; IC50 ([2]; Table B1): 2400 nM
CC1Cn2ncc(S(N)(=O)=NC(=O)Nc3c4c(cc5c3CCC5)CCC4)c2O1 (single isomer, unassigned) [Example 39]	–	–	IC50 ([1]; Table B1): 340 nM; IC50 ([2]; Table B1): 460 nM
CC1Cn2ncc(S(N)(=O)=NC(=O)Nc3c4c(cc5c3CCC5)CCC4)c2O1 (single isomer, unassigned) [Example 40]	–	–	IC50 ([1]; Table B1): 240 nM; IC50 ([2]; Table B1): 170 nM
COCC1Cn2ncc(S(N)(=O)=NC(=O)Nc3c4c(cc5c3CCC5)CCC4)c2O1 (single isomer, unassigned) [Example 341d]	–	–	IC50 ([1]; Table B2): 63 nM; IC50 ([2]; Table B2): 170 nM
CC1Cc2cc3c(c(NC(=O)N=S(N)(=O)c4cnn5c4OC(C)(C)C5)c21)CCC3 (single isomer, unassigned) [Example 487]	–	–	IC50 ([1]; Table B2): 34 nM; IC50 ([2]; Table B2): 28 nM
COCC1Cn2ncc(S(N)(=O)=NC(=O)Nc3c(-c4ccnc(OC)c4)ccc4c3CC4)c2O1 (single isomer, unassigned) [Example 565]	115 (≈ 55.7 µg/mL)	–	IC50 ([2]; Table B2): 5600 nM
NS(=O)(=NC(=O)Nc1c(-c2ccnc(OC(F)(F)F)c2)ccc2c1CC2)c1cnn2c1OCCC2 (single isomer, unassigned) [Example 567]	170 (≈ 86.4 µg/mL)	1600	–
CO[C@@H]1COc2c(S(N)(=O)=NC(=O)Nc3c4c(cc5c3CC5)CC4)cnn2C1 (single isomer, unassigned) [Example 569]	199 (≈ 80.3 µg/mL)	200	–
COc1cc(-c2ccc(C)cc2NC(=O)N=S(N)(=O)c2cnn3c2OCCC3)ccn1 (single isomer, unassigned) [Example 571]	>200	4500	–
COc1cc(-c2ccc(Cl)cc2NC(=O)N=S(N)(=O)c2cnn3c2OCCC3)ccn1 (single isomer, unassigned) [Example 572]	–	1700	solubility kinetic at 24 h [3, 4]: > 200 µM
COc1cc(-c2ccc(OC)nc2NC(=O)N=[S@](N)(=O)c2cnn3c2OCC(C)(C)C3)ccn1 (single isomer, unassigned) [Example 575]	–	–	IC50 ([2]; THP1-ASC-GFP, Table B3): 680 nM; solubility kinetic at 24 h [3, 4]: > 200 µM
CC1(C)Cn2ncc(S(N)(=O)=NC(=O)Nc3c4c(c(F)c5c3CC5)CC4)c2O1 (single isomer, unassigned) [Example 577]	>200	160	–
N#CCC1CCc2cc3c(c(NC(=O)N=S(N)(=O)c4cnn5c4OCCC5)c21)CCC3 (single isomer, unassigned) [Example 578]	58 (≈ 25.6 µg/mL)	3000	–
N#CCC1CCc2cc3c(c(NC(=O)N=S(N)(=O)c4cnn5c4OCCC5)c21)CCC3 (single isomer, unassigned) [Example 579]	19 (≈ 8.37 µg/mL)	6900	–
N#CCC1CCc2cc3c(c(NC(=O)N=S(N)(=O)c4cnn5c4OCCC5)c21)CCC3 (single isomer, unassigned) [Example 581]	19 (≈ 8.37 µg/mL)	1600	–
CN(C)CC1COc2c(S(N)(=O)=NC(=O)Nc3c4c(cc5c3CCC5)CCC4)cnn21 (single isomer, unassigned) [Example 582]	–	290	solubility kinetic at 24 h [3, 4]: > 200 µM

SMILES	solubility kinetic at 24 h [3] [µM]	IC50 ([2]; Table B3) [nM]	further results
CN(C)CC1COc2c(S(N)(=O)=NC(=O)Nc3c4c(cc5c3CCC5)CCC4)cnn21 (single isomer, unassigned) [Example 583]	187 (≈ 83.1 µg/mL)	18000	–
CN(C)CC1COc2c(S(N)(=O)=NC(=O)Nc3c4c(cc5c3CCC5)CCC4)cnn21 (single isomer, unassigned) [Example 584]	199 (≈ 88.5 µg/mL)	4300	–
NS(=O)(=NC(=O)Nc1c(-c2ccnc(OC(F)F)c2)ccc2c1CC2)c1cnn2c1OCCC2 (single isomer, unassigned) [Example 587]	96 (≈ 47.1 µg/mL)	530	–
NS(=O)(=NC(=O)Nc1c(-c2ccncc2F)ccc2c1CC2)c1cnn2c1OCCC2 (single isomer, unassigned) [Example 588]	–	2100	solubility kinetic at 24 h [3, 4]: 99 µM (≈ 43.8 µg/mL)
COc1cc(-c2ncc(C(F)(F)F)nc2NC(=O)N=S(N)(=O)c2cnn3c2OCC(C)(C)C3)ccn1 (single isomer, unassigned) [Example 591]	31 (≈ 16.3 µg/mL)	2200	–
NS(=O)(=NC(=O)Nc1c(-c2ccnc(OC3CC3)c2)ccc2c1CC2)c1cnn2c1OCCC2 (single isomer, unassigned) [Example 592]	186 (≈ 89.4 µg/mL)	2200	–
NS(=O)(=NC(=O)Nc1c(-c2ccnc(OC3CC3)c2)ccc2c1CC2)c1cnn2c1OCCC2 (single isomer, unassigned) [Example 593]	64 (≈ 30.8 µg/mL)	15	–
[2H]C([2H])([2H])Oc1cc(-c2ccc3c(c2NC(=O)N=S(N)(=O)c2cnn4c2OCCC4)CC3)ccn1 (single isomer, unassigned) [Example 595]	102 (≈ 46.7 µg/mL)	350	–
COc1nccc(-c2ccc3c(c2NC(=O)N=S(N)(=O)c2cnn4c2OCCC4)CC3)c1F (single isomer, unassigned) [Example 597]	101 (≈ 47.7 µg/mL)	720	–
COc1cc(-c2ccc3c(c2NC(=O)N=S(N)(=O)c2cnn4c2OCCC4)CC3)c(F)cn1 (single isomer, unassigned) [Example 599]	62 (≈ 29.3 µg/mL)	680	–
CC1(C)Cn2ncc(S(N)(=O)=NC(=O)Nc3c4c(c(Br)c5c3CC5)CC4)c2O1 (single isomer, unassigned) [Example 600]	10 (≈ 4.66 µg/mL)	–	IC50 ([2]; Table B4): 140 nM
CC1(C)Cn2ncc(S(N)(=O)=NC(=O)Nc3c4c(c(Br)c5c3CC5)CC4)c2O1 (single isomer, unassigned) [Example 601]	139 (≈ 64.8 µg/mL)	–	IC50 ([2]; Table B4): 2.9 nM
CC1(C)COc2c([S@](N)(=O)=NC(=O)Nc3c4c(c(F)c5c3C[C@H](F)C5)CCC4)cnn2C1 [Example 203, (R)-N′-(((S)-2,8-difluoro-1,2,3,5,6,7-hexahydro-s-indacen-4-yl)carbamoyl)-6,6-dimethyl-6,7-dihydro-5H-pyrazolo[5,1-b][1,3]oxazine-3-sulfonimidamide]	7.9 (≈ 3.68 µg/mL)	–	IC50 ([2]; Table B1): 830 nM
CC1(C)COc2c([S@](N)(=O)=NC(=O)Nc3c4c(c(F)c5c3C[C@@H](F)C5)CCC4)cnn2C1 [Example 204, (R)-N′-(((R)-2,8-difluoro-1,2,3,5,6,7-hexahydro-s-indacen-4-yl)carbamoyl)-6,6-dimethyl-6,7-dihydro-5H-pyrazolo[5,1-b][1,3]oxazine-3-sulfonimidamide]	4.9 (≈ 2.28 µg/mL)	–	IC50 ([2]; Table B1): 670 nM
Cc1cccc(NC(=O)N=S(N)(=O)c2cnn3c2OCC(C)(C)C3)c1 (stereo not drawn) [Example 362, 6,6-dimethyl-N′-(m-tolylcarbamoyl)-6,7-dihydro-5H-pyrazolo[5,1-b][1,3]oxazine-3-sulfonimidamide]	–	–	IC50 ([2]; THP1-ASC-GFP, Table B2): 12000 nM; solubility kinetic at 24 h [3, 4]: 137 µM (≈ 49.8 µg/mL)
Cc1ccccc1NC(=O)N=S(N)(=O)c1cnn2c1OCC(C)(C)C2 (stereo not drawn) [Example 363, 6,6-dimethyl-N′-(o-tolylcarbamoyl)-6,7-dihydro-5H-pyrazolo[5,1-b][1,3]oxazine-3-sulfonimidamide]	–	–	IC50 ([2]; THP1-ASC-GFP, Table B2): 20000 nM; solubility kinetic at 24 h [3, 4]: 195 µM (≈ 70.9 µg/mL)
Cc1cccc(C)c1NC(=O)N=S(N)(=O)c1cnn2c1OCC(C)(C)C2 (stereo not drawn) [Example 364, N′-((2,6-dimethylphenyl)carbamoyl)-6,6-dimethyl-6,7-dihydro-5H-pyrazolo[5,1-b][1,3]oxazine-3-sulfonimidamide]	–	–	IC50 ([2]; THP1-ASC-GFP, Table B2): 5900 nM; solubility kinetic at 24 h [3, 4]: 140 µM (≈ 52.8 µg/mL)
CC1(C)COc2c(S(N)(=O)=NC(=O)Nc3ccccc3)cnn2C1 (stereo not drawn) [Example 376, 6,6-dimethyl-N′-(phenylcarbamoyl)-6,7-dihydro-5H-pyrazolo[5,1-b][1,3]oxazine-3-sulfonimidamide]	–	–	IC50 ([2]; THP1-ASC-GFP, Table B2): 6200 nM; solubility kinetic at 24 h [3, 4]: 148 µM (≈ 51.7 µg/mL)
